In general, pIC50 refers to −log10 of the IC50, conventionally taken in molar units. Higher therefore signals a small IC50.

pIC50: −log10 of the molar value.

For experiment [1], the system named is LNCaP. As to the kind of experiment: Concentration required to inhibit growth of human LNCaP prostate cancer cells. The class given is functional.
Experiment [2] relates to LNCaP. As to the kind of experiment: Concentration required to inhibit human LNCaP prostate carcinoma cells. The class given is functional, cell-based.

Take `CC1=C(/C=C/C(C)=C/C=C/C(C)=C/C(=O)Nc2ccc(O)cc2)C(C)(C)CCC1n1ccnc1` (configuration not stated): the Growth inhibition in experiment [1] was found to be 5 µM. The same molecule had a pIC50 in experiment [2] of 5.26.

Values taken from ChEMBL document CHEMBL1140349, “A new simple and high-yield synthesis of suberoylanilide hydroxamic acid and its inhibitory effect alone or in combination with retinoids on proliferation of human prostate cancer cells” (J Med Chem, 2005).
